{"source": "patent US11420935B2", "about": "“Bicyclic compounds” (Vivace Therapeutics, Inc., priority 2019, dated 2022)", "data": [{"test_system": "8×TBD luciferase reporter (YAP) in HEK293T cells", "assay": "YAP Reporter Assay (8×TBD firefly luciferase reporter)", "type": "cell-based", "settings": "Homo sapiens, HEK-293T, 24 h, read-out: Firefly Luciferase IC50 (μM)", "procedure": "(§1) HEK293T cells stably transfected with 8×TBD luciferase reporter and pRLTK in 384-well plates were treated with the test compounds, starting from 3 μM (final concentration in assay plate), 1:3 dilution, and 10 points in quadruplicates. Post 24-hr incubation with compounds at 37° C. and 5% CO2, cells were lysed and 8×TBD-driven firefly luciferase and control TK-driven renilla luciferase activities were measured using Promega Dual-Luciferase Reporter Assay System.\n(§2) Reagents: The reagents used for this study are: DMEM: Invitrogen #11960077, Dual-Glo Luciferase Assay System: Promega-E2980, Puromycin Dihydrochloride: Invitrogen-A1113803, 384-well plate: PerkinElmer-6007480, L-GLUTAMINE: Invitrogen-25030164, Hygromycin B: Invitrogen-10687010, and Penicillin-Streptomycin: Merk-TMS-AB2-C\n(§3) Media: The media used for this assay were: Culture Medium: DMEM+1 ug/mL puromycin+200 ug/mL hygromycin (with 10% FBS+1 mM L-glutamine); and Assay Medium: DMEM (with 10% FBS+1 mM L-glutamine+1×P/S).\n(§4) Cell Plating: The appropriate media was warmed at 37° C. by water bath: Culture Medium, Assay Medium, 1*D-PBS, 0.05% trypsin-EDTA. The cells were trypsinized after removing all media, then washed with 1*sterile D-PBS and then with 2 ml 0.05% trypsin-EDTA. The cells were then incubated at RT for one minute. Then 10 ml/75 cm2 flask Assay Medium was added to each flask. Using a 10 ml pipette, the cells were then gently resuspended in the media, until the clumps completely disappeared. The cells were then transferred into 50 ml centrifuge tubes and were centrifuged at 800 rpm for 5 mins. The medium was removed and the cells were resuspended with Assay Medium. An aliquot of cells was used to count the cell density (cells/ml). The cell suspension was then diluted with Assay Medium to a concentration of 6×10^4 cells/ml. 50 ul cells suspension was then plated to 384-well plate (PerkinElmer-6007480), 3×10^3 cells/well and the cells were incubated in an incubator at 37° C., 5% CO2.\n(§5) Compound Treatment: In the afternoon (incubation of the plate with 3-4 hrs), the test compounds were added by Echo, starting from 3 uM (final concentration in the assay plate), 1:3 dilution, 10 points, quadruplicates. The plate was placed at 37° C., 5% CO2 incubator for 24 hrs.\n(§6) Detection: The Dual-Glo Luciferase Reagent was prepared by transferring the contents of one bottle of Dual-Glo Luciferase Buffer to one bottle of Dual-Glo Luciferase Substrate to create the Dual-Glo Luciferase Reagent. Mixing was performed by inversion until the substrate was thoroughly dissolved. After mixing, the reagent was aliquoted into 15 ml tubes. In the afternoon (24 hrs post compound treatment), the DMEM+medium in the 384 well plates were aspirated by Microplate Washer.\n(§7) Measuring firefly luciferase activity: 20 ul Dual-Glo Luciferase Reagent was added to the 384-well plates. The plates were protected from light to prevent interference with the assay. The plates were shaken for 1 min followed centrifuging plates at 1000 rpm for 30 seconds. After waiting at least 10 minutes, the firefly luminescence was measured by Envision.\n(§8) Measuring renilla luciferase activity: 20 ul Stop-Glo Reagent was added to the 384-well plates. The plates were shaken for 1 min and then centrifuged at 1000 rpm for 30 seconds. After waiting at least 10 minutes, the renilla luminescence was measured by Envision.\n(§9) Compound IC50 and maximum inhibition on the firefly luciferase and renilla luciferase activities were reported separately.", "units": {"IC50": "µM"}, "values": [{"smiles": "CC(C)NC(=O)c1ccc2c(Oc3ccc(Cl)cc3)cccc2c1", "note": "[Compound 1, 5-(4-chlorophenoxy)-N-isopropyl-2-naphthamide]", "IC50": "< 0.1"}, {"smiles": "CC(C)NC(=O)c1ccc2c(Oc3cccc(Cl)c3)cccc2c1", "note": "[Compound 2, 5-(3-chlorophenoxy)-N-isopropyl-2-naphthamide]", "IC50": "< 0.1"}, {"smiles": "CC(C)NC(=O)c1ccc2c(Oc3ccc(Cl)c(Cl)c3)cccc2c1", "note": "[Compound 3, 5-(3,4-dichlorophenoxy)-N-isopropyl-naphthalene-2-carboxamide]", "IC50": "< 0.1"}, {"smiles": "CC(C)NC(=O)c1cnc2c(Oc3ccc(C(F)(F)F)cc3)cccc2c1", "note": "[Compound 13, N-isopropyl-8-[4-(trifluoromethyl)phenoxy]quinoline-3-carboxamide]", "IC50": "< 0.1"}, {"smiles": "N#CCNC(=O)c1ccc2c(Oc3ccc(C(F)(F)F)cc3)cccc2c1", "note": "[Compound 22, N-(cyanomethyl)-5-(4-(trifluoromethyl)phenoxy)-2-naphthamid]", "IC50": "< 0.1"}, {"smiles": "N#CCCNC(=O)c1ccc2c(Oc3ccc(C(F)(F)F)cc3)cccc2c1", "note": "[Compound 23, N-(2-cyanoethyl)-5-(4-(trifluoromethyl)phenoxy)-2-naphthamide]", "IC50": "< 0.1"}]}, {"test_system": "8×TBD luciferase reporter (YAP) in HEK293T cells", "assay": "YAP Reporter Assay (8×TBD firefly luciferase reporter)", "type": "cell-based", "settings": "Homo sapiens, HEK-293T; HEK293T cells stably transfected with 8×TBD luciferase reporter and pRLTK; 24-hr incubation; firefly luciferase activity; read-out: Firefly Luciferase IC50", "procedure": "as §1, §2, §3, §4, §5, §6, §7, §8, §9", "units": {"IC50": "µM"}, "values": [{"smiles": "CC(C)NC(=O)c1ccc2c(Oc3ccc(C(F)(F)F)cc3)cccc2c1", "note": "[Compound 4, N-isopropyl-5-(4-(trifluoromethyl)phenoxy)-2-naphthamide]", "IC50": "< 0.1"}, {"smiles": "CS(=O)(=O)NC(=O)c1ccc2c(Oc3ccc(C(F)(F)F)cc3)cccc2c1", "note": "[Compound 5, N-(methylsulfonyl)-5-(4-(trifluoromethyl)phenoxy)-2-naphthamide]", "IC50": "< 0.1"}, {"smiles": "CS(=O)(=O)NC(=O)c1ccc2c(Oc3ccc(Cl)c(Cl)c3)cccc2c1", "note": "[Compound 6, 5-(3,4-dichlorophenoxy)-N-(methylsulfonyl)-2-naphthamide]", "IC50": "< 0.1"}, {"smiles": "CNS(=O)(=O)c1ccc2c(Oc3ccc(C(F)(F)F)cc3)cccc2c1", "note": "[Compound 7, N-methyl-5-(4-(trifluoromethyl)phenoxy)naphthalene-2-sulfonamide]", "IC50": "< 0.1"}, {"smiles": "CC(C)NC(=O)c1ccc2c(Oc3ccc(F)c(F)c3)cccc2c1", "note": "[Compound 8, 5-(3,4-difluorophenoxy)-N-isopropyl-2-naphthamide]", "IC50": "< 0.1"}, {"smiles": "CNS(=O)(=O)c1ccc2c(Oc3ccc(Cl)c(Cl)c3)cccc2c1", "note": "[Compound 9, 5-(3,4-dichlorophenoxy)-N-methylnaphthalene-2-sulfonamide]", "IC50": "< 0.1"}, {"smiles": "CS(=O)(=O)NC(=O)c1ccc2c(Oc3ccc(F)c(F)c3)cccc2c1", "note": "[Compound 10, 5-(3,4-difluorophenoxy)-N-(methylsulfonyl)-2-naphthamide]", "IC50": "< 0.1"}, {"smiles": "CC(C)NC(=O)c1ccc2c(Oc3ccc(C(F)(F)F)cc3)nccc2c1", "note": "[Compound 11, N-isopropyl-1-[4-(trifluoromethyl)phenoxy]isoquinoline-6-carboxamide]", "IC50": "< 0.1"}, {"smiles": "C[C@H](CO)NC(=O)c1ccc2c(Oc3ccc(C(F)(F)F)cc3)nccc2c1", "note": "[Compound 12, N-[(1R)-2-hydroxy-1-methyl-ethyl]-1-[4-(trifluoromethyl)phenoxy]isoquinoline-6-carboxamide]", "IC50": "< 0.1"}, {"smiles": "O=C(NC(CO)c1ccccn1)c1cnc2c(Oc3ccc(C(F)(F)F)cc3)cccc2c1", "note": "(stereo not shown) [Compound 14, N-[2-hydroxy-1-(2-pyridyl)ethyl]-8-[4-(trifluoromethyl)phenoxy]quinoline-3-carboxamide]", "IC50": "< 0.1"}, {"smiles": "C[C@H](CO)NC(=O)c1cnc2c(Oc3ccc(C(F)(F)F)cc3)cccc2c1", "note": "[Compound 15, N-[(1R)-2-hydroxy-1-methyl-ethyl]-8-[4-(trifluoromethyl)phenoxy]quinoline-3-carboxamide]", "IC50": "< 0.1"}, {"smiles": "COC[C@@H](C)NC(=O)c1cnc2c(Oc3ccc(C(F)(F)F)cc3)cccc2c1", "note": "[Compound 16, N-[(1R)-2-methoxy-1-methyl-ethyl]-8-[4-(trifluoromethyl)phenoxy]quinoline-3-carboxamide]", "IC50": "0.1 to 1"}, {"smiles": "C[C@@H](NC(=O)c1cnc2c(Oc3ccc(C(F)(F)F)cc3)cccc2c1)c1ccccn1", "note": "[Compound 17, N-[(1R)-1-(2-pyridyl)ethyl]-8-[4-(trifluoromethyl)phenoxy]quinoline-3-carboxamide]", "IC50": "0.1 to 1"}, {"smiles": "COC[C@H](C)NC(=O)c1cnc2c(Oc3ccc(C(F)(F)F)cc3)cccc2c1", "note": "[Compound 18, N-[(1S)-2-methoxy-1-methyl-ethyl]-8-[4-(trifluoromethyl)phenoxy]quinoline-3-carboxamide]", "IC50": "< 0.1"}, {"smiles": "C[C@H](NC(=O)c1cnc2c(Oc3ccc(C(F)(F)F)cc3)cccc2c1)c1ccccn1", "note": "[Compound 19, N-[(1S)-1-(2-pyridyl)ethyl]-8-[4-(trifluoromethyl)phenoxy]quinoline-3-carboxamide]", "IC50": "< 0.1"}, {"smiles": "C#CCNC(=O)c1ccc2c(Oc3ccc(C(F)(F)F)cc3)cccc2c1", "note": "[Compound 20, N-(prop-2-yn-1-yl)-5-(4-(trifluoromethyl)phenoxy)-2-naphthamide]", "IC50": "< 0.1"}, {"smiles": "C#CCCNC(=O)c1ccc2c(Oc3ccc(C(F)(F)F)cc3)cccc2c1", "note": "[Compound 21, N-(but-3-yn-1-yl)-5-(4-(trifluoromethyl)phenoxy)-2-naphthamide]", "IC50": "< 0.1"}, {"smiles": "C[C@H](CO)NC(=O)c1ccc2c(Oc3ccc(C(F)(F)F)cc3)cccc2c1", "note": "[Compound 24, (R)—N-(1-hydroxypropan-2-yl)-5-(4-(trifluoromethyl)phenoxy)-2-naphthamide]", "IC50": "< 0.1"}, {"smiles": "O=C(NC(CO)c1ccccn1)c1ccc2c(Oc3ccc(C(F)(F)F)cc3)cccc2c1", "note": "(stereo not shown) [Compound 25, N-(2-hydroxy-1-(pyridin-2-yl)ethyl)-5-(4-(trifluoromethyl)phenoxy)-2-naphthamide]", "IC50": "< 0.1"}, {"smiles": "COC[C@@H](C)NC(=O)c1ccc2c(Oc3ccc(C(F)(F)F)cc3)cccc2c1", "note": "[Compound 26, (R)—N-(1-methoxypropan-2-yl)-5-(4-(trifluoromethyl)phenoxy)-2-naphthamide]", "IC50": "< 0.1"}, {"smiles": "C[C@@H](NC(=O)c1ccc2c(Oc3ccc(C(F)(F)F)cc3)cccc2c1)c1ccccn1", "note": "[Compound 27, N-[(1R)-1-(2-pyridyl)ethyl]-5-[4-(trifluoromethyl)phenoxy]naphthalene-2-carboxamide]", "IC50": "0.1 to 1"}, {"smiles": "COC[C@H](C)NC(=O)c1ccc2c(Oc3ccc(C(F)(F)F)cc3)cccc2c1", "note": "[Compound 28, (S)—N-(1-methoxypropan-2-yl)-5-(4-(trifluoromethyl)phenoxy)-2-naphthamide]", "IC50": "< 0.1"}, {"smiles": "C[C@H](NC(=O)c1ccc2c(Oc3ccc(C(F)(F)F)cc3)cccc2c1)c1ccccn1", "note": "[Compound 29, (S)—N-(1-(pyridin-2-yl)ethyl)-5-(4-(trifluoromethyl)phenoxy)-2-naphthamide]", "IC50": "< 0.1"}, {"smiles": "CNCCNC(=O)c1ccc2c(Oc3ccc(C(F)(F)F)cc3)cccc2c1", "note": "[Compound 30, N-(2-(methylamino)ethyl)-5-(4-(trifluoromethyl)phenoxy)-2-naphthamide]", "IC50": "0.1 to 1"}, {"smiles": "CN(C#N)CCNC(=O)c1ccc2c(Oc3ccc(C(F)(F)F)cc3)cccc2c1", "note": "[Compound 31, N-(2-(N-methylcyanamido)ethyl)-5-(4-(trifluoromethyl)phenoxy)-2-naphthamide]", "IC50": "< 0.1"}, {"smiles": "CC(C)NC(=O)c1cc2cccc(Oc3ccc(C(F)(F)F)cc3)c2s1", "note": "[Compound 32, N-isopropyl-7-(4-(trifluoromethyl)phenoxy)benzo[b]thiophene-2-carboxamide]", "IC50": "< 0.1"}, {"smiles": "C[C@H](CO)NC(=O)c1cc2cccc(Oc3ccc(C(F)(F)F)cc3)c2s1", "note": "[Compound 33, (R)—N-(1-hydroxypropan-2-yl)-7-(4-(trifluoromethyl)phenoxy)benzo[b]thiophene-2-carboxamide]", "IC50": "< 0.1"}, {"smiles": "CNCCCNC(=O)c1ccc2c(Oc3ccc(C(F)(F)F)cc3)cccc2c1", "note": "[Compound 34, N-(3-(methylamino)propyl)-5-(4-(trifluoromethyl)phenoxy)-2-naphthamide]", "IC50": "< 0.1"}]}]}
